Experimental data: patent US20250282742A1, “BENZOFURAN DERIVATIVES FOR TARGETING AUTOPHAGY” (Automera PTE. LTD, priority 2024, published 2025)

Key:
Recombinant p62 protein = biological target: T1, Recombinant p62 protein (Homo sapiens, UniProt Q13501); assay: Surface plasmon resonance (SPR) compound binding to immobilised p62; details: recombinant p62, 15° C
T1 construct: Recombinant p62 protein was buffer exchanged into Biacore SPR running buffer
Experimental: Example 28: Surface Plasmon Resonance (SPR) Analysis
Recombinant p62 protein was buffer exchanged into Biacore SPR running buffer (Cytiva 100671) using the Slide-A-Lyzer Mini Dialysis system 7K MWCO (Thermo Fisher Scientific, Cat no. 69560). The final protein concentration was determined using the Nanodrop One spectrophotometer (Thermo Fisher Scientific, cat no. ND-ONE-W), with calibration for the dialysis buffer.
The prepared protein was diluted in sodium acetate buffer (NaAc, pH 5.5, Cytiva) to concentrations ranging from approximately 0.25-40 μg/mL. Post-immobilization, the protein required approximately 16 hours of equilibration in running buffer supplemented with 1% DMSO at 15° C. to ensure adequate surface equilibration and protein reorganization.
All SPR experiments were conducted at a constant temperature of 15° C. The SPR chip surface was activated using EDC/NHS for a contact time of 6-10 min at a flow rate of 10 μL/min. This was followed by protein immobilization for 2100 seconds and ethanolamine capping for 420 seconds, both at the same flow rate. Immediately after immobilization, the NH2—REEE peptide was analyzed in Single Cycle Kinetics mode (SCK) to verify surface activity, ensuring it binds the sample with the published affinity (−20 μM by SPR).
For general compound binding studies, experiments were performed at 15° C. using a running buffer composed of 10 mM HEPES, 150 mM NaCl, 1 mM DTT, 0.05% Tween 20, and 1% DMSO at pH 7.4. The test compound was initially prepared at a 20 mM concentration in DMSO and subsequently titrated in 2-fold dilutions. For each assay, 2 μL of the compound was mixed with 198 μL of the running buffer, and the mixture was thoroughly pipetted approximately 15 times for homogenization.
A series of blank injections (0 μM concentration) were included for double referencing, with at least 8 or 16 per plate depending on the format. Typical injection parameters were 120 seconds for association and 180 seconds for dissociation at a flow rate of […]. A four-point solvent correction was prepared with DMSO concentrations ranging from 2% to 0.5% in the buffer. Post each compound injection, the system's needles were washed with 50% DMSO.
Analysis of the SPR data was conducted using the Cytiva Evaluation software. The binding levels at the late time-point of each interaction were corrected for reference, then normalized to percentage bound values to account for variations in immobilization levels, protein molecular weight, and compound molecular weight.
Compound binding studies were carried out according to experimental procedures above and SPR % occupancy was determined and summarized in Table 7.

p62 puncta in HeLa cells = assay: p62 puncta assay (immunocytochemistry and imaging, EVOS M7000 or Operetta CLS); format: cell-based; details: Homo sapiens, fold change in p62 puncta levels relative to DMSO control, 24 hr
Experimental: HeLa cells were seeded in coated 96-well plates (10,000 cells) and allowed to adhere overnight. After 24 hours of treatment with either vehicle (DMSO) or test compounds, the media was discarded, and cells were rinsed with ice-cold 1×PBS before fixation by 4% formaldehyde or paraformaldehyde for 20 min. Cells were then washed with 1×PBS and permeabilized with 0.1% Triton X-100 in PBS for 20 min and blocked with Blocking Buffer in PBS for 1 hour. The cells were incubated thereafter for 1 hour with anti-p62 primary antibody in Blocking Buffer, followed by incubation with secondary antibody for 1 hour. DAPI dye was used to visualize nuclei of fixed cells. The blocking buffer used were 5% Fetal Bovine Serum (FBS, ThermoFIsher Scientific, 10270106) and Li-cor Intercept (PBS) Blocking Buffer (Li-cor, 927-70001). The primary antibody used was mouse anti-p62 primary antibody (Novus Biologicals, H00008878-MO1). The secondary antibodies used were goat anti-mouse Alexa Fluor Plus 488 secondary antibody (Invitrogen, GOXMS) and goat anti-mouse Alexa Fluor 488 secondary antibody (Invitrogen, A-11029). The DAPI dyes used were DAPI dye (Invitrogen, 62248) and DAPI dye (Invitrogen, D1306).
For the EVOS M7000 System, cells were imaged on the EVOS M7000 microscope using a 20× air objective (Nikon, N.A 0.45). DAPI and p62 channels were illuminated with LED light cubes using integrated hard-coated filter sets for DAPI (357/447 nm) and GFP (470/525 nm) respectively. Images were analysed for p62 puncta count on the Celeste 6.0 software.
For the Operetta CLS System, cells were imaged on the Operetta CLS using a 63× water objective on the DAPI and Alexa 488 channels. Images were analysed for p62 puncta count on the Harmony 5.1 software.
HeLa cells were treated with compounds for 24 hours to evaluate the effect of these compounds on p62 puncta activity. The resulting changes in levels of p62 puncta were assessed by imaging, either on the EVOS M7000 or Operetta CLS systems as described in experimental procedures. The fold change of p62 puncta levels induced by compound treatment relative to vehicle control (DMSO) was determined and summarized in Table 10.

T1 sequence (Q13501 whole entry, species assumed): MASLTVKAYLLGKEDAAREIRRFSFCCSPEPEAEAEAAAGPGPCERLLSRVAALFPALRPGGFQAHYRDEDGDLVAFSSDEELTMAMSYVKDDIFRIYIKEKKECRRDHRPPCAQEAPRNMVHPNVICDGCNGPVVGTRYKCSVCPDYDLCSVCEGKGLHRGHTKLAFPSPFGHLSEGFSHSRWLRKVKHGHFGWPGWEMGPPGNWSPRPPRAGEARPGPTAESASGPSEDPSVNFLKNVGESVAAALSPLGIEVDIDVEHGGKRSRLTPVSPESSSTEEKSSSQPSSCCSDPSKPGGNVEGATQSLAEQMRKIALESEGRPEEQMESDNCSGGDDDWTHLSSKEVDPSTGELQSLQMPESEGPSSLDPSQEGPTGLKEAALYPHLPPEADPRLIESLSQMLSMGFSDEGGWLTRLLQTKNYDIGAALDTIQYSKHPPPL

SMILES: OCCNCc1ccc2cc(-c3ccccc3)oc2c1 [Compound 2, 2-(((2-phenylbenzofuran-6-yl)methyl)amino)ethan-1-ol]
- receptor occupancy at 100 µM (Recombinant p62 protein): 30 to 70%
- fold induction at 5 µM (p62 puncta in HeLa cells): > 2

SMILES: OCCNCc1ccc2cc(Cc3ccc(Cl)cc3)oc2c1 [Compound 13, 2-(((2-(4-chlorobenzyl)benzofuran-6-yl)methyl)amino)ethan-1-ol]
- receptor occupancy at 100 µM (Recombinant p62 protein): > 70%
- fold induction at 5 µM (p62 puncta in HeLa cells): > 2

SMILES: Cc1c(Cc2ccccc2)oc2cc(CNCCO)ccc12 [Compound 42, 2-(((2-benzyl-3-methylbenzofuran-6-yl)methyl)amino)ethan-1-ol]
- receptor occupancy at 100 µM (Recombinant p62 protein): 30 to 70%
- fold induction at 5 µM (p62 puncta in HeLa cells): < 2

SMILES: OCCNCc1ccc2cc(CCc3ccc(F)cc3)oc2c1 [Compound 49, 2-(((2-(4-fluorophenethyl)benzofuran-6-yl)methyl)amino)ethan-1-ol]
- receptor occupancy at 100 µM (Recombinant p62 protein): 30 to 70%
- fold induction at 5 µM (p62 puncta in HeLa cells): > 2

SMILES: OCCNCc1ccc2cc(Cc3ccccc3)oc2c1 [compound 1]
- receptor occupancy at 100 µM (Recombinant p62 protein): < 30%
- fold induction at 5 µM (p62 puncta in HeLa cells): > 2

SMILES: OCCNCc1ccc2cc(Cc3ccc(F)cc3)oc2c1 [compound 12]
- receptor occupancy at 100 µM (Recombinant p62 protein): > 70%
- fold induction at 5 µM (p62 puncta in HeLa cells): > 2
